According to article PMC8765048 (JCI Insight, 2022):
Like-named read-outs stand apart in the source and are kept apart here.

How the values were obtained:
[1] = system: Calu-3 (human lung adenocarcinoma); experiment: CellTox Green Cytotoxicity Assay; settings: ratio > 1 cytostatic, ≤ 1 cytotoxic
[2] = system: Ebola virus RNA-directed RNA polymerase (RdRp) activity; settings: in vitro; cited from earlier work
[3] = system: SARS-CoV-2 B.1.351 (Beta); experiment: microbe, parasite or virus in culture; type: cell-based
[4] = system: SARS-CoV-2; experiment: Combinatorial sangivamycin/remdesivir efficacy testing, Caco-2 cells; type: cell-based; settings: Severe acute respiratory syndrome coronavirus 2, Caco-2; read-out: IC50 (nM), S:R by [Sangivamycin]
[5] = system: SARS-CoV-2; experiment: Combinatorial sangivamycin/remdesivir efficacy testing, Calu-3 cells; type: cell-based; settings: Severe acute respiratory syndrome coronavirus 2, Calu-3; read-out: IC50 (nM), S:R by [Sangivamycin]
[6] = system: SARS-CoV-2 B.1.427 (Epsilon); experiment: microbe, parasite or virus in culture; type: cell-based
[7] = system: grivets; settings: 10 days at 1.6 mg/kg/d and 28 days at 0.4 mg/kg/d; cited from earlier work
[8] = Plasma protein binding assessment (equilibrium dialysis); type: in vitro ADME; settings: 37°C
Method: The plasma protein binding assay was performed by Cyprotex to assess sangivamycin plasma protein binding. Equilibrium dialysis was used to determine the extent of binding of a compound to plasma proteins. A semipermeable membrane separated a protein-containing compartment (PC) from a protein-free compartment (PF). The system was set to equilibrate at 37°C. The test compound present in each compartment was then quantified by LC-MS/MS. The extent of binding is reported as a fraction unbound (fu) value, which is calculated as fu = 1 – ([PC – PF]/PC).

[9] = system: SARS-CoV-2 B.1.617.2 (Delta); experiment: microbe, parasite or virus in culture; type: cell-based
[10] = biological target: T1, CYP1A2 (Homo sapiens, UniProt P05177); experiment: CYP inhibition testing, human liver microsomes; type: in vitro ADME
T1 construct: along with human liver microsomes (0.5 mg/mL) and cofactors; tissue Cyprotex (performed the assay); host or cells: human liver microsomes
T1 sequence (P05177 whole entry): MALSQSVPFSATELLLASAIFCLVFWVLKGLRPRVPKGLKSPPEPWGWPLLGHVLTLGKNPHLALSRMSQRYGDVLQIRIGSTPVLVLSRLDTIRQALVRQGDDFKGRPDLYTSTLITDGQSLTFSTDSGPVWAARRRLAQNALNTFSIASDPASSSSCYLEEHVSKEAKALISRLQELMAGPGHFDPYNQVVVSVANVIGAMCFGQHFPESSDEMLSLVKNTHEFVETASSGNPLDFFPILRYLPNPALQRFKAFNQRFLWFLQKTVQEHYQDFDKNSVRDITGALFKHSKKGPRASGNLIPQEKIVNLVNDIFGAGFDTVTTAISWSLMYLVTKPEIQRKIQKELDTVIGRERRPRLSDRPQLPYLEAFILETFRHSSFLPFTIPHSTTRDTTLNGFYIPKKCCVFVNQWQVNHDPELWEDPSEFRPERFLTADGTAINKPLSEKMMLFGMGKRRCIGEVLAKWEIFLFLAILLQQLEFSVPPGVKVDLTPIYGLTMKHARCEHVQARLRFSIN
Method: (§1) Sangivamycin was incubated by Cyprotex with a cocktail of model CYP substrates for CYP1A2, CYP2B6, CYP2C8, CYP2C9, CYP2C19, CYP2D6, CYP3A4, and CYP3A4, along with human liver microsomes (0.5 mg/mL) and cofactors (2.5 mM NADPH and 3.3 mM MgCl2), in 0.1 M phosphate buffer (pH 7.4) for 20 minutes at 37°C. Known CYP inhibitors were used in lieu of sangivamycin as positive controls: furafylin (1A2), thioTEPA (2B6), montelukast (2C8), sulfaphenazole (2C9), nootkatone (2C19), quinidine (2D6), and ketoconazole (3A4). Formation of substrate breakdown metabolites was measured by LC-MS/MS and compared with control incubation (incubation of substrates with microsomes and cofactors but in the absence of sangivamycin or in the presence of known inhibitors). CYP inhibition was measured as a decrease in the formation of expected metabolites in the presence of sangivamycin or control inhibitor (defined as a percentage of control).

[11] = biological target: T2, CYP2C19 (Homo sapiens, UniProt P33261); experiment: CYP inhibition testing, human liver microsomes; type: in vitro ADME
T2 construct: along with human liver microsomes (0.5 mg/mL) and cofactors; tissue Cyprotex (performed the assay); host or cells: human liver microsomes
T2 sequence (P33261 whole entry): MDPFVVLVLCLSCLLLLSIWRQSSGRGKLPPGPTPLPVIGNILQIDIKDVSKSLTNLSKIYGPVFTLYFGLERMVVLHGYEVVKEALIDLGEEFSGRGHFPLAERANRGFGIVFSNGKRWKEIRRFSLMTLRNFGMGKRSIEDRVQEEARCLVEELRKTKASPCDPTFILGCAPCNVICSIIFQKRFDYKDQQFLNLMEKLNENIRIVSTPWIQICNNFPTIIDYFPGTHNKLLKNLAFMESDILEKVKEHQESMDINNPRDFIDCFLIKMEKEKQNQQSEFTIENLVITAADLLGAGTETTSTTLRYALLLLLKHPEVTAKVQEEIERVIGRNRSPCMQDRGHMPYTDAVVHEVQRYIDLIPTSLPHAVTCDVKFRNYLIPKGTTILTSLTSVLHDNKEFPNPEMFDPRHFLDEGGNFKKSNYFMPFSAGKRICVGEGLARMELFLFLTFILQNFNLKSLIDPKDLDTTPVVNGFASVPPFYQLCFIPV
Method: as §1

[12] = biological target: T3, CYP2B6 (Homo sapiens, UniProt P20813); experiment: CYP inhibition testing, human liver microsomes; type: in vitro ADME
T3 construct: along with human liver microsomes (0.5 mg/mL) and cofactors; tissue Cyprotex (performed the assay); host or cells: human liver microsomes
T3 sequence (P20813 whole entry): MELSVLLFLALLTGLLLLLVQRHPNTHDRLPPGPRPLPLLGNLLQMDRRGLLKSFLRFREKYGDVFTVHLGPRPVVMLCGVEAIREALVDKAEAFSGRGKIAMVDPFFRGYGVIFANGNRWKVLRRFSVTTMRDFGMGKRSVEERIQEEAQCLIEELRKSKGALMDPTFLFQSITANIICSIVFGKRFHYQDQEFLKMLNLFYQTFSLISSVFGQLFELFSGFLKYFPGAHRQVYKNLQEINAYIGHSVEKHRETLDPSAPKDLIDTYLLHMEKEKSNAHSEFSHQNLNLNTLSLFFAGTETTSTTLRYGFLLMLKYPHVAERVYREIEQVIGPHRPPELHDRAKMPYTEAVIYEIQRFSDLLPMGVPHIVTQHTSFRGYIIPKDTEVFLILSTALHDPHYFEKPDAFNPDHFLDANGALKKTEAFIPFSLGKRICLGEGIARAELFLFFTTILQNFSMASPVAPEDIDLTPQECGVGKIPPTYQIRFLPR
Method: as §1

[13] = biological target: T4, CYP3A4 (Homo sapiens, UniProt P08684); experiment: CYP inhibition testing, human liver microsomes; type: in vitro ADME
T4 construct: along with human liver microsomes (0.5 mg/mL) and cofactors; tissue Cyprotex (performed the assay); host or cells: human liver microsomes
T4 sequence (P08684 whole entry): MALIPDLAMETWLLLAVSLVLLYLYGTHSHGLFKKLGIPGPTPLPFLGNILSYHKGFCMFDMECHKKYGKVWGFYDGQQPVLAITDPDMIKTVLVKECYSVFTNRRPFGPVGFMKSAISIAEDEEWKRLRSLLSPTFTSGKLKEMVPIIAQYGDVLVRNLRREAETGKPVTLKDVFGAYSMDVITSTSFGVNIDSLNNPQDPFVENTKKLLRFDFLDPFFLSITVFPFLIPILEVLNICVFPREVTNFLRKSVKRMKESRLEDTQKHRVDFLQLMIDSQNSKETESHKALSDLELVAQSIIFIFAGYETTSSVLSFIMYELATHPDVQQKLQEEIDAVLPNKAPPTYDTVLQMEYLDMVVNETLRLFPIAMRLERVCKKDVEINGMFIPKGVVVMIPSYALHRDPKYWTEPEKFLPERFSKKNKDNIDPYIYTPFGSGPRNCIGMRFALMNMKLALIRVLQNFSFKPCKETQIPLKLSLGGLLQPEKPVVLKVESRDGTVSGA
Method: as §1

[14] = biological target: T5, CYP2D6 (Homo sapiens, UniProt P10635); experiment: CYP inhibition testing, human liver microsomes; type: in vitro ADME
T5 construct: along with human liver microsomes (0.5 mg/mL) and cofactors; tissue Cyprotex (performed the assay); host or cells: human liver microsomes
T5 sequence (P10635 whole entry): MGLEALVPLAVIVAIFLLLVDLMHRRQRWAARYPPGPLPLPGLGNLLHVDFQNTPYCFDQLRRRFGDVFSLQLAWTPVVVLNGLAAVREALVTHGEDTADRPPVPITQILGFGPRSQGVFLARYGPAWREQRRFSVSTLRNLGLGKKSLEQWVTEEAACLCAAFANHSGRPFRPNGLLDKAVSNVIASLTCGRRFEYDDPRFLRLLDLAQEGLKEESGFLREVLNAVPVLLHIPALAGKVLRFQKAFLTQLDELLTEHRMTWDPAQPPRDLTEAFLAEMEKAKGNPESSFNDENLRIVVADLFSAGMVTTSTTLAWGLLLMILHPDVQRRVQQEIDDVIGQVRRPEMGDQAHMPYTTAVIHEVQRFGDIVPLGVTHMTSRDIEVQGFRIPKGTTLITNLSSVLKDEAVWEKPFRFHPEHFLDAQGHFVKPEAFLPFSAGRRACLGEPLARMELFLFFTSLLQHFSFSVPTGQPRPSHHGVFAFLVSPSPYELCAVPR
Method: as §1

[15] = biological target: T6, CYP2C9 (Homo sapiens, UniProt P11712); experiment: CYP inhibition testing, human liver microsomes; type: in vitro ADME
T6 construct: along with human liver microsomes (0.5 mg/mL) and cofactors; tissue Cyprotex (performed the assay); host or cells: human liver microsomes
T6 sequence (P11712 whole entry): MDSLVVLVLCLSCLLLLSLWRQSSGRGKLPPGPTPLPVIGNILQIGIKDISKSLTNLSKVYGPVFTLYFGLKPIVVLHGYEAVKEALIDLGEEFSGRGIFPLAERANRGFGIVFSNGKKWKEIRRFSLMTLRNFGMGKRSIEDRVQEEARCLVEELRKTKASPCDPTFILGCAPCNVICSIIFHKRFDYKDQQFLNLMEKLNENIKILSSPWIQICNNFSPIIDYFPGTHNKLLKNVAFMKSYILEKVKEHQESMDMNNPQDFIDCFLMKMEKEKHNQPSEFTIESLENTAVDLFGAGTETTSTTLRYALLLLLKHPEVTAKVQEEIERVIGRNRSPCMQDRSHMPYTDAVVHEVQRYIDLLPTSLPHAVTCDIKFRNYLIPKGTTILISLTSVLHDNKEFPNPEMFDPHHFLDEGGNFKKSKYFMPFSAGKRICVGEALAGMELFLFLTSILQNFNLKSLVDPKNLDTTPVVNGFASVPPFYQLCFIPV
Method: as §1

[16] = biological target: T7, CYP2C8 (Homo sapiens, UniProt P10632); experiment: CYP inhibition testing, human liver microsomes; type: in vitro ADME
T7 construct: along with human liver microsomes (0.5 mg/mL) and cofactors; tissue Cyprotex (performed the assay); host or cells: human liver microsomes
T7 sequence (P10632 whole entry): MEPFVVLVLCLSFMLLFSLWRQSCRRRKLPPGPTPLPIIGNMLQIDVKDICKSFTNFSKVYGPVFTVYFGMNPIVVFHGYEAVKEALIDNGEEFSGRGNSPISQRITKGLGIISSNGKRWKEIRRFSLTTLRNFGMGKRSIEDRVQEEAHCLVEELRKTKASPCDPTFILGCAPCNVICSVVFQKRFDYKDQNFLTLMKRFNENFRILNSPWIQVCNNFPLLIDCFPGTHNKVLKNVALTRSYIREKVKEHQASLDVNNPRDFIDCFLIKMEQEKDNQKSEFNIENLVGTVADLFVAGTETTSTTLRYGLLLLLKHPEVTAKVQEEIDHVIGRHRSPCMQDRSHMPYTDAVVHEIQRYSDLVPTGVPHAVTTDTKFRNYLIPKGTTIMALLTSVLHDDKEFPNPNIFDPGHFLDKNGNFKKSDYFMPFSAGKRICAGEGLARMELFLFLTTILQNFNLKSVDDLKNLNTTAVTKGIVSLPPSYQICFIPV
Method: as §1

[17] = system: SARS-CoV-2 WA1; experiment: microbe, parasite or virus in culture; type: cell-based
[18] = 24-hour plasma pharmacokinetics in CD-1 laboratory mice; type: in vivo, mouse; settings: for apparent volume of distribution / total clearance / area under the curve to the last time point / Cmax: CD-1 mice, i.p. 60 mg/kg; for area under the curve to the last time point: 24 h; for Cmax: mouse, plasma, ip
Method: We next evaluated the 24-hour pharmacokinetics (PK) of sangivamycin in CD-1 laboratory mouse plasma. Sangivamycin’s plasma concentrations increased following i.p. injection of 60 mg/kg to a peak at 2 hours, then decreased over 6 or 8 hours, and remained virtually unchanged up to 24 hours after dosing. […] Graphing plasma concentration versus time produced an area under the curve to the last time point with values of 632 ± 66.6 h•ng/mL for males and 833 ± 53.9 h•ng/mL for females. […] Our data corroborate historical PK studies in mice with ^3H-labeled sangivamycin performed at the NCI in 1974 ([20]). In these studies, free nucleoside and mono-, di-, and triphosphate forms of sangivamycin were detected in blood, urine, and multiple tissues (e.g., heart, liver, brain, spleen, and kidneys) following i.p. injection of 8 mg/kg. The studies established that sangivamycin was phosphorylated after transportation into cells. In liver, heart, and brain, the predominant form of sangivamycin was sangivamycin 5′-monophosphate (SMP). […] Therefore, we determined the level of SMP in blood in our PK study using a published liquid chromatography–tandem mass spectrometry (LC-MS/MS) method with a lower limit of quantification of 1 ng/mL ([33]). Using this method, we detected SMP in the plasma of dosed mice but not control mice (Supplemental Figure 9B). The apparent levels of SMP increased in blood during the 24 hours of this study. There also was possible presence of a diphosphate metabolite of sangivamycin, but it was detected only in the plasma samples taken 24 hours after dosing.

[19] = Severe acute respiratory syndrome coronavirus 2, Vero C1008, 18 h
[20] = Severe acute respiratory syndrome coronavirus 2, Vero C1008, 24 h
[21] = Severe acute respiratory syndrome coronavirus 2, VeroE6/TMPRSS2, 18 h

## NC(=O)c1cn([C@@H]2O[C@H](CO)[C@@H](O)[C@H]2O)c2ncnc(N)c12 [Sangivamycin, sangivamycin]
[1]
  Ratio CellTox Green/CellTiter-Glo: >15.5
[2]
  effect of remdesivir and sangivamycin combined: additive effect
[3]; B.1.351 (Beta), Vero E6 cells
  SI (selectivity index, CC50/IC50): >10.5
[3]; [19]
  IC50: 0.0574 µM
  IC90: 0.224 µM
[4]
  IC50: 39 nM
[5]
  IC50: 69.6 nM
[6]; B.1.427 (Epsilon), Vero E6 cells
  SI (selectivity index, CC50/IC50): >32.3
[6]; [20]
  IC50: 0.0186 µM
  IC90: 0.212 µM
[7]
  tolerability: tolerated
[8]; human
  fraction unbound: 0.83
[8]; mouse
  fraction unbound: 0.879
[9]
  IC50: 0.0804 µM
[9]; B.1.617.2 (Delta), Vero E6/TMPRSS2 cells
  SI (selectivity index, CC50/IC50): >7.5
[9]; [21]
  IC50: 0.08 µM
  IC90: 0.263 µM
[10]
  IC50: > 100 µM
[11]
  IC50: > 100 µM
[12]
  IC50: > 100 µM
[13]
  IC50: > 100 µM
[14]
  IC50: > 100 µM
[15]
  IC50: > 100 µM
[16]
  IC50: > 100 µM
[17]; Severe acute respiratory syndrome coronavirus 2, Vero C1008, 48 h
  IC90: 0.064 ± 0.003 µM
[17]; Severe acute respiratory syndrome coronavirus 2, Vero C1008, 48 h, read-out: IC50
  IC50: 0.034 ± 0.001 µM
[17]; Severe acute respiratory syndrome coronavirus 2, Vero C1008, read-out: average IC50
  IC50: 0.052 ± 0.013 µM
[17]; WA1, Vero E6 cells
  SI (selectivity index, CC50/IC50): 14.4
[18]; females
  apparent volume of distribution: 167,000 mL/kg
  total clearance: 68,500 mL/h/kg
  area under the curve to the last time point: 833 ± 53.9 ng·h/mL
[18]; males
  apparent volume of distribution: 369,000 mL/kg
  total clearance: 85,400 mL/h/kg
  area under the curve to the last time point: 632 ± 66.6 ng·h/mL
[18]; female, females (285 ng/mL), read-out: Cmax, molar equivalent
  Cmax: 922 nM
[18]; female, females, read-out: Cmax of the plasma
  Cmax: 285 ± 35.9 ng/mL
[18]; male, males (97.3 ng/mL), read-out: Cmax, molar equivalent
  Cmax: 314 nM
[18]; male, males, read-out: Cmax of the plasma
  Cmax: 97.3 ± 31 ng/mL
[18]; mouse plasma Cmax 314 nM and 922 nM
  Cmax relative to the average IC90 in the 3 cell lines tested: 3- to 9 fold
